Here are results for two molecules from US9249134B2, “Process for preparation of amorphous form of dasatinib” (CADILA HEALTHCARE LIMITED, priority 2013, dated 2016).

For data set [1] the following is noted: in water or organic solvents like methanol, ethanol, propanol, isopropanol, butanol; even in the condition of heating; cited from earlier work.
Data set [2] is described as follows: Solid-state stability of prior-art amorphous dasatinib under stability conditions. The settings on record: amorphous dasatinib having higher residual solvents (prior art process), subjected to stability conditions. The format is physicochemical. How it is done: Therefore, the prior art process provides amorphous dasatinib containing higher amount of residual solvent which is not suitable for pharmaceutical developments.
As used herein, the term “stable dasatinib” includes either: amorphous dasatinib that after exposure to a relative humidity of 75% at 40° C. or 60% at 25° C., for a period of at least three months contains less than about 0.5% (wt/wt) total impurities and doesn't change to crystalline form.

With `Cc1nc(Nc2ncc(C(=O)Nc3c(C)cccc3Cl)s2)cc(N2CCN(CCO)CC2)n1` [Dasatinib, N-(2-chloro-6-methylphenyl)-2-[[6-[4-(2-hydroxyethyl)-1-piperazinyl]-2-methyl-4-pyrimidinyl]amino]-5-thiazolecarboxamide], the solubility entry in data set [1] is “practically insoluble”.
For the molecule `Cc1nc(Nc2ncc(C(=O)Nc3c(C)cccc3Cl)s2)cc(N2CCN(CCO)CC2)n1` [amorphous dasatinib], the “solid form stability (amorphous to crystalline conversion)” value in data set [2] is “converts to crystalline form”.
